Holding throughout (assay type): functional
For test [1], the system named is Enterococcus faecalis. Nature of the test: In vitro antibacterial activity against Enterococcus faecalis.
Test [2] deals with Staphylococcus aureus. Nature of the test: In vivo efficacy;(sc) tested for protection against staphylococcus infections in mice. To be noted: read-out: PD50.
Test [3] deals with Staphylococcus aureus. The experiment in a line: In vitro antibacterial activity against Staphylococcus aureus.
For test [4], the system named is Streptococcus pneumoniae. The experiment in a line: In vitro antibacterial activity against Streptococcus pneumoniae.

This passage reports MIC and ED50 results from ChEMBL document CHEMBL1146687, “Novel semi-synthetic nocathiacin antibiotics: synthesis and antibacterial activity of bis- and mono-O-alkylated derivatives” (Bioorg Med Chem Lett, 2004).

Values after ≈ are worked out from the molar mass of the structure shown.

As to `C=C(NC(=O)c1csc(-c2nc3c(cc2O)-c2nc(cs2)C(=O)N[C@@H]([C@@H](C)O)C(=O)N/C(=C(\C)OC)c2nc(cs2)C(=O)N[C@@H]2c4nc(cs4)C(=O)N[C@@H](COC(=O)c4c5c6c(cccc6n4OCCn4ccnc4)COC(=O)[C@@H](O[C@H]4C[C@](C)(O)[C@H](N(C)C)[C@H](C)O4)[C@H]2OC5)c2nc-3cs2)n1)C(N)=O`, the figures for the MIC in test [1], in test [3] and in test [4] were 1 µg/mL (≈ 0.653 µM), 0.5 µg/mL (≈ 0.326 µM) and 0.015 µg/mL (≈ 0.00979 µM), respectively. Moreover, the ED50 in test [2] was greater than 10 mg/kg.
The matching figures for `C=C(NC(=O)c1csc(-c2nc3c(cc2O)-c2nc(cs2)C(=O)N[C@@H]([C@@H](C)O)C(=O)N/C(=C(\C)OC)c2nc(cs2)C(=O)N[C@@H]2c4nc(cs4)C(=O)N[C@@H](COC(=O)c4c5c6c(cccc6n4OCCOCCOCCOCCOCCOCO)COC(=O)[C@@H](O[C@H]4C[C@](C)(O)[C@H](N(C)C)[C@H](C)O4)[C@H]2OC5)c2nc-3cs2)n1)C(N)=O`: 0.5 µg/mL (≈ 0.296 µM), 0.125 µg/mL (≈ 0.0741 µM), 0.007 µg/mL (≈ 0.00415 µM) and greater than 10 mg/kg.
For the compound `C=C(NC(=O)c1csc(-c2nc3c(cc2OCC(=O)N(C)C)-c2nc(cs2)C(=O)N[C@@H]([C@@H](C)O)C(=O)N/C(=C(\C)OC)c2nc(cs2)C(=O)N[C@@H]2c4nc(cs4)C(=O)N[C@@H](COC(=O)c4c5c6c(cccc6n4OCC(=O)N(C)C)COC(=O)[C@@H](O[C@H]4C[C@](C)(O)[C@H](N(C)C)[C@H](C)O4)[C@H]2OC5)c2nc-3cs2)n1)C(N)=O`, the MIC in test [1] was found to be 4 µg/mL (≈ 2.49 µM); in test [3], 8 µg/mL (≈ 4.98 µM); in test [4] it was 0.125 µg/mL (≈ 0.0777 µM). The ED50 in test [2] was greater than 10 mg/kg.
The matching figures for `C=C(NC(=O)c1csc(-c2nc3c(cc2O)-c2nc(cs2)C(=O)N[C@@H]([C@@H](C)O)C(=O)N/C(=C(\C)OC)c2nc(cs2)C(=O)N[C@@H]2c4nc(cs4)C(=O)N[C@@H](COC(=O)c4c5c6c(cccc6n4OCCCN)COC(=O)[C@@H](O[C@H]4C[C@](C)(O)[C@H](N(C)C)[C@H](C)O4)[C@H]2OC5)c2nc-3cs2)n1)C(N)=O`: 1 µg/mL (≈ 0.669 µM), 0.25 µg/mL (≈ 0.167 µM), 0.06 µg/mL (≈ 0.0401 µM) and greater than 10 mg/kg.
The matching figures for `C=C(NC(=O)c1csc(-c2nc3c(cc2O)-c2nc(cs2)C(=O)N[C@@H]([C@@H](C)O)C(=O)N/C(=C(\C)OC)c2nc(cs2)C(=O)N[C@@H]2c4nc(cs4)C(=O)N[C@@H](COC(=O)c4c5c6c(cccc6n4OC)COC(=O)[C@@H](O[C@H]4C[C@](C)(O)[C@H](N(C)C)[C@H](C)O4)[C@H]2OC5)c2nc-3cs2)n1)C(N)=O`: 0.125 µg/mL (≈ 0.0861 µM), 0.03 µg/mL (≈ 0.0207 µM), 0.003 µg/mL (≈ 0.00207 µM) and less than 0.62 mg/kg.
Regarding `C=C(NC(=O)c1csc(-c2nc3c(cc2O)-c2nc(cs2)C(=O)N[C@@H]([C@@H](C)O)C(=O)N/C(=C(\C)OC)c2nc(cs2)C(=O)N[C@@H]2c4nc(cs4)C(=O)N[C@@H](COC(=O)c4c5c6c(cccc6n4OCP(=O)(OCC)OCC)COC(=O)[C@@H](O[C@H]4C[C@](C)(O)[C@H](N(C)C)[C@H](C)O4)[C@H]2OC5)c2nc-3cs2)n1)C(N)=O`, the MIC stood at 0.03 µg/mL (≈ 0.0189 µM) in test [1], 0.015 µg/mL (≈ 0.00945 µM) in test [3] and 0.001 µg/mL (≈ 0.00063 µM) in test [4]. For the same compound, the ED50 in test [2] is 1.6 mg/kg.
The matching figures for `C=C(NC(=O)c1csc(-c2nc3c(cc2OCCCS(=O)(=O)O)-c2nc(cs2)C(=O)N[C@@H]([C@@H](C)O)C(=O)N/C(=C(\C)OC)c2nc(cs2)C(=O)N[C@@H]2c4nc(cs4)C(=O)N[C@@H](COC(=O)c4c5c6c(cccc6n4O)COC(=O)[C@@H](O[C@H]4C[C@](C)(O)[C@H](N(C)C)[C@H](C)O4)[C@H]2OC5)c2nc-3cs2)n1)C(N)=O`: 32 µg/mL (≈ 20.5 µM), 2 µg/mL (≈ 1.28 µM), 0.25 µg/mL (≈ 0.16 µM) and greater than 10 mg/kg.
As for `C=C(NC(=O)c1csc(-c2nc3c(cc2O)-c2nc(cs2)C(=O)N[C@@H]([C@@H](C)O)C(=O)N/C(=C(\C)OC)c2nc(cs2)C(=O)N[C@@H]2c4nc(cs4)C(=O)N[C@@H](COC(=O)c4c5c6c(cccc6n4OCCCOC4O[C@H](CO)[C@@H](O)[C@H](O)[C@H]4O)COC(=O)[C@@H](O[C@H]4C[C@](C)(O)[C@H](N(C)C)[C@H](C)O4)[C@H]2OC5)c2nc-3cs2)n1)C(N)=O` (some centres not stated), the figures for the minimum inhibitory concentration (MIC) in test [1], in test [3] and in test [4] were greater than 128 µg/mL, 16 µg/mL (≈ 9.65 µM) and 0.06 µg/mL (≈ 0.0362 µM), respectively. For the same compound, the ED50 in test [2] is greater than 10 mg/kg.
With `C=C(NC(=O)c1csc(-c2nc3c(cc2OC)-c2nc(cs2)C(=O)N[C@@H]([C@@H](C)O)C(=O)N/C(=C(\C)OC)c2nc(cs2)C(=O)N[C@@H]2c4nc(cs4)C(=O)N[C@@H](COC(=O)c4c5c6c(cccc6n4O)COC(=O)[C@@H](O[C@H]4C[C@](C)(O)[C@H](N(C)C)[C@H](C)O4)[C@H]2OC5)c2nc-3cs2)n1)C(N)=O`, the MIC in test [1] was determined as 0.015 µg/mL (≈ 0.0103 µM); in test [3], 0.015 µg/mL (≈ 0.0103 µM); in test [4] it was 0.003 µg/mL (≈ 0.00207 µM). In addition, in test [2], the ED50 is greater than 10 mg/kg.
`C=CCOc1cc2c(nc1-c1nc(C(=O)NC(=C)C(N)=O)cs1)-c1csc(n1)[C@@H]1COC(=O)c3c4c5c(cccc5n3OCC=C)COC(=O)[C@@H](O[C@H]3C[C@](C)(O)[C@H](N(C)C)[C@H](C)O3)[C@@H](OC4)[C@H](NC(=O)c3csc(n3)/C(=C(/C)OC)NC(=O)[C@H]([C@@H](C)O)NC(=O)c3csc-2n3)c2nc(cs2)C(=O)N1`: the MIC in test [1] was determined as 0.25 µg/mL (≈ 0.165 µM); in test [3], 0.06 µg/mL (≈ 0.0395 µM); in test [4] it was 0.0005 µg/mL (≈ 0.000329 µM). Further, the ED50 in test [2] was greater than 10 mg/kg.
The matching figures for `C=C(NC(=O)c1csc(-c2nc3c(cc2O)-c2nc(cs2)C(=O)N[C@@H]([C@@H](C)O)C(=O)N/C(=C(\C)OC)c2nc(cs2)C(=O)N[C@@H]2c4nc(cs4)C(=O)N[C@@H](COC(=O)c4c5c6c(cccc6n4OCCCN4CCN(C)CC4)COC(=O)[C@@H](O[C@H]4C[C@](C)(O)[C@H](N(C)C)[C@H](C)O4)[C@H]2OC5)c2nc-3cs2)n1)C(N)=O`: 1 µg/mL (≈ 0.634 µM), 1 µg/mL (≈ 0.634 µM), 0.03 µg/mL (≈ 0.019 µM) and 8.7 mg/kg.
The matching figures for `C=C(NC(=O)c1csc(-c2nc3c(cc2O)-c2nc(cs2)C(=O)N[C@@H]([C@@H](C)O)C(=O)N/C(=C(\C)OC)c2nc(cs2)C(=O)N[C@@H]2c4nc(cs4)C(=O)N[C@@H](COC(=O)c4c5c6c(cccc6n4OCCC[N+](C)(C)C)COC(=O)[C@@H](O[C@H]4C[C@](C)(O)[C@H](N(C)C)[C@H](C)O4)[C@H]2OC5)c2nc-3cs2)n1)C(N)=O`: 2 µg/mL, greater than 128 µg/mL, 0.5 µg/mL and greater than 10 mg/kg.
Turning to `C=C(NC(=O)c1csc(-c2nc3c(cc2OCCN2CCOCC2)-c2nc(cs2)C(=O)N[C@@H]([C@@H](C)O)C(=O)N/C(=C(\C)OC)c2nc(cs2)C(=O)N[C@@H]2c4nc(cs4)C(=O)N[C@@H](COC(=O)c4c5c6c(cccc6n4OCCN4CCOCC4)COC(=O)[C@@H](O[C@H]4C[C@](C)(O)[C@H](N(C)C)[C@H](C)O4)[C@H]2OC5)c2nc-3cs2)n1)C(N)=O`, the values for the MIC in test [1], in test [3] and in test [4] were 0.25 µg/mL (≈ 0.15 µM), 1 µg/mL (≈ 0.601 µM) and 0.03 µg/mL (≈ 0.018 µM), respectively. In addition, the ED50 in test [2] was greater than 10 mg/kg.

Broadly, the MIC is the lowest concentration found to suppress growth. The low end stands for a more susceptible organism, the high end for a less susceptible organism.
